Source: BindingDB's records for doi:10.1021/jm00095a011 (Centre De Recherche De Vitry-Alfortville, 1992)
pIC50: −log10 of the molar value.

Test: Capability of compound to inhibit the binding of [3H]LTB4 to guinea pig spleen Leukotriene B4 receptor at the concentration of 10e-5 M

| Compound | pIC50 |
| --- | --- |
| Cc1cc(CCCc2ccccc2)c(CCCCCC(C)(C)C(=O)O)s1 | 6.70 |

Test: Capability to inhibit the binding of [3H]LTB4 to guinea pig spleen Leukotriene B4 receptor at the concentration of 10e-5 M

| Compound | pIC50 |
| --- | --- |
| O=C(O)CCCCCCc1sccc1CCCc1ccccc1 | 6.00 |
| Cc1cc(CCCc2ccccc2)c(CCCCCC(C)C(=O)O)s1 (stereo not drawn) | 6.52 |
| Cc1cc(CCCCCCC(=O)O)c(CCCc2ccccc2)s1 | 6.15 |
| O=C(O)CCCCCCc1sc(-c2ccccc2)cc1CCCc1ccccc1 | 6.00 |
| CC(C)(CCCCCc1sc(-c2ccccc2)cc1CCCc1ccccc1)C(=O)O | 6.10 |
| O=C(O)CCCCc1sccc1CCCc1ccccc1 | 5.46 |
| O=C(O)CCCCCCc1ccsc1CCCc1ccc(Cl)cc1 | 6.00 |
| O=C(O)CCCCCC(O)c1sccc1CCCc1ccccc1 (stereo not drawn) | 5.22 |
| O=C(O)CCCCCCc1csc(CCc2ccccc2)c1 | 5.00 |
| Cc1cc(CCCc2ccccc2)c(SCCCCCC(=O)O)s1 | 5.52 |
| O=C(O)CCCCCCc1csc(CCCc2ccc(O)cc2)c1 | 5.30 |
| CC(CCCCCc1sccc1CCCc1ccccc1)C(=O)O (stereo not drawn) | 6.96 |
| O=C(O)CCCCCCc1csc(Cc2ccccc2)c1 | 5.00 |
| Cc1cc(CCCCCC(C)C(=O)O)c(CCCc2ccccc2)s1 (stereo not drawn) | 6.52 |
| CC(C)(CCCCCc1cc(-c2ccccc2)sc1CCCc1ccccc1)C(=O)O | 5.92 |
| O=C(O)CCCCCCc1csc(CCCc2ccc(Cl)cc2)c1 | 6.00 |

Test: Capability of compound to inhibit the binding of [3H]LTB4 to guinea pig spleen Leukotriene B4 receptors at the concentration of 10e-5 M

| Compound | pIC50 |
| --- | --- |
| O=C(O)CCCCCCc1ccsc1CCCc1ccccc1 | 6.00 |
